± gives the expanded uncertainty stated by the source.
Test: xn = mol fraction of the nth substance listed
Conditions: 313.15 K; 100 kPa; Liquid; Capillary tube (Ostwald / Ubbelohde) method; x2 = 0

SMILES | viscosity
CCCO [propan-1-ol] + CC[S+](CC)CC.O=S(=O)([N-]S(=O)(=O)C(F)(F)F)C(F)(F)F | 1.348 ± 0.11 mPa·s
CCCO [propan-1-ol] + O=S(=O)([N-]S(=O)(=O)C(F)(F)F)C(F)(F)F.On1cc[n+](O)c1 | 1.348 ± 0.11 mPa·s

Same assay, conditions: 313.15 K; 100 kPa; Liquid; Frequency=3 MHz; Single path-length method; x2 = 0

SMILES | speed of sound
CCCO [propan-1-ol] + C=CCn1cc[n+](C)c1.O=S(=O)([N-]S(=O)(=O)C(F)(F)F)C(F)(F)F | 1155.5 ± 6 m/s
CCCO [propan-1-ol] + CC[S+](CC)CC.O=S(=O)([N-]S(=O)(=O)C(F)(F)F)C(F)(F)F | 1155.5 ± 6 m/s
CCCO [propan-1-ol] + O=S(=O)([N-]S(=O)(=O)C(F)(F)F)C(F)(F)F.On1cc[n+](O)c1 | 1155.5 ± 6 m/s

Same assay, conditions: 313.15 K; 100 kPa; Liquid; Vibrating tube method; x2 = 0

SMILES | mass density
CCCO [propan-1-ol] + C=CCn1cc[n+](C)c1.O=S(=O)([N-]S(=O)(=O)C(F)(F)F)C(F)(F)F | 787 ± 2 kg/m3
CCCO [propan-1-ol] + CC[S+](CC)CC.O=S(=O)([N-]S(=O)(=O)C(F)(F)F)C(F)(F)F | 787 ± 2 kg/m3
CCCO [propan-1-ol] + O=S(=O)([N-]S(=O)(=O)C(F)(F)F)C(F)(F)F.On1cc[n+](O)c1 | 787 ± 2 kg/m3

Same assay, conditions: 318.15 K; 100 kPa; Liquid; Capillary tube (Ostwald / Ubbelohde) method; x2 = 0

SMILES | viscosity
CCCO [propan-1-ol] + C=CCn1cc[n+](C)c1.O=S(=O)([N-]S(=O)(=O)C(F)(F)F)C(F)(F)F | 1.211 ± 0.097 mPa·s
CCCO [propan-1-ol] + CC[S+](CC)CC.O=S(=O)([N-]S(=O)(=O)C(F)(F)F)C(F)(F)F | 1.211 ± 0.097 mPa·s
CCCO [propan-1-ol] + O=S(=O)([N-]S(=O)(=O)C(F)(F)F)C(F)(F)F.On1cc[n+](O)c1 | 1.211 ± 0.097 mPa·s

Same assay, conditions: 318.15 K; 100 kPa; Liquid; Frequency=3 MHz; Single path-length method; x2 = 0

SMILES | speed of sound
CCCO [propan-1-ol] + C=CCn1cc[n+](C)c1.O=S(=O)([N-]S(=O)(=O)C(F)(F)F)C(F)(F)F | 1138.7 ± 6 m/s
CCCO [propan-1-ol] + CC[S+](CC)CC.O=S(=O)([N-]S(=O)(=O)C(F)(F)F)C(F)(F)F | 1138.7 ± 6 m/s
CCCO [propan-1-ol] + O=S(=O)([N-]S(=O)(=O)C(F)(F)F)C(F)(F)F.On1cc[n+](O)c1 | 1138.7 ± 6 m/s

Same assay, conditions: 318.15 K; 100 kPa; Liquid; Vibrating tube method; x2 = 0

SMILES | mass density
CCCO [propan-1-ol] + C=CCn1cc[n+](C)c1.O=S(=O)([N-]S(=O)(=O)C(F)(F)F)C(F)(F)F | 783 ± 2 kg/m3
CCCO [propan-1-ol] + CC[S+](CC)CC.O=S(=O)([N-]S(=O)(=O)C(F)(F)F)C(F)(F)F | 783 ± 2 kg/m3
CCCO [propan-1-ol] + O=S(=O)([N-]S(=O)(=O)C(F)(F)F)C(F)(F)F.On1cc[n+](O)c1 | 783 ± 2 kg/m3

Same assay, conditions: 323.15 K; 100 kPa; Liquid; Capillary tube (Ostwald / Ubbelohde) method; x2 = 0

SMILES | viscosity
CCCO [propan-1-ol] + C=CCn1cc[n+](C)c1.O=S(=O)([N-]S(=O)(=O)C(F)(F)F)C(F)(F)F | 1.09 ± 0.087 mPa·s
CCCO [propan-1-ol] + CC[S+](CC)CC.O=S(=O)([N-]S(=O)(=O)C(F)(F)F)C(F)(F)F | 1.09 ± 0.087 mPa·s
CCCO [propan-1-ol] + O=S(=O)([N-]S(=O)(=O)C(F)(F)F)C(F)(F)F.On1cc[n+](O)c1 | 1.09 ± 0.087 mPa·s

Same assay, conditions: 323.15 K; 100 kPa; Liquid; Frequency=3 MHz; Single path-length method; x2 = 0

SMILES | speed of sound
CCCO [propan-1-ol] + C=CCn1cc[n+](C)c1.O=S(=O)([N-]S(=O)(=O)C(F)(F)F)C(F)(F)F | 1121.9 ± 6 m/s
CCCO [propan-1-ol] + CC[S+](CC)CC.O=S(=O)([N-]S(=O)(=O)C(F)(F)F)C(F)(F)F | 1121.9 ± 6 m/s
CCCO [propan-1-ol] + O=S(=O)([N-]S(=O)(=O)C(F)(F)F)C(F)(F)F.On1cc[n+](O)c1 | 1121.9 ± 6 m/s

Same assay, conditions: 323.15 K; 100 kPa; Liquid; Vibrating tube method; x2 = 0

SMILES | mass density
CCCO [propan-1-ol] + C=CCn1cc[n+](C)c1.O=S(=O)([N-]S(=O)(=O)C(F)(F)F)C(F)(F)F | 779 ± 2 kg/m3
CCCO [propan-1-ol] + CC[S+](CC)CC.O=S(=O)([N-]S(=O)(=O)C(F)(F)F)C(F)(F)F | 779 ± 2 kg/m3
CCCO [propan-1-ol] + O=S(=O)([N-]S(=O)(=O)C(F)(F)F)C(F)(F)F.On1cc[n+](O)c1 | 779 ± 2 kg/m3

Same assay, conditions: 328.15 K; 100 kPa; Liquid; Capillary tube (Ostwald / Ubbelohde) method; x2 = 0

SMILES | viscosity
CCCO [propan-1-ol] + C=CCn1cc[n+](C)c1.O=S(=O)([N-]S(=O)(=O)C(F)(F)F)C(F)(F)F | 0.985 ± 0.079 mPa·s
CCCO [propan-1-ol] + CC[S+](CC)CC.O=S(=O)([N-]S(=O)(=O)C(F)(F)F)C(F)(F)F | 0.985 ± 0.079 mPa·s
CCCO [propan-1-ol] + O=S(=O)([N-]S(=O)(=O)C(F)(F)F)C(F)(F)F.On1cc[n+](O)c1 | 0.985 ± 0.079 mPa·s

Same assay, conditions: 328.15 K; 100 kPa; Liquid; Frequency=3 MHz; Single path-length method; x2 = 0

SMILES | speed of sound
CCCO [propan-1-ol] + C=CCn1cc[n+](C)c1.O=S(=O)([N-]S(=O)(=O)C(F)(F)F)C(F)(F)F | 1105.2 ± 6 m/s
CCCO [propan-1-ol] + CC[S+](CC)CC.O=S(=O)([N-]S(=O)(=O)C(F)(F)F)C(F)(F)F | 1105.2 ± 6 m/s
CCCO [propan-1-ol] + O=S(=O)([N-]S(=O)(=O)C(F)(F)F)C(F)(F)F.On1cc[n+](O)c1 | 1105.2 ± 6 m/s

Same assay, conditions: 328.15 K; 100 kPa; Liquid; Vibrating tube method; x2 = 0

SMILES | mass density
CCCO [propan-1-ol] + C=CCn1cc[n+](C)c1.O=S(=O)([N-]S(=O)(=O)C(F)(F)F)C(F)(F)F | 775 ± 2 kg/m3
CCCO [propan-1-ol] + CC[S+](CC)CC.O=S(=O)([N-]S(=O)(=O)C(F)(F)F)C(F)(F)F | 775 ± 2 kg/m3
CCCO [propan-1-ol] + O=S(=O)([N-]S(=O)(=O)C(F)(F)F)C(F)(F)F.On1cc[n+](O)c1 | 775 ± 2 kg/m3

Same assay, conditions: 333.15 K; 100 kPa; Liquid; Capillary tube (Ostwald / Ubbelohde) method; x2 = 0

SMILES | viscosity
CCCO [propan-1-ol] + C=CCn1cc[n+](C)c1.O=S(=O)([N-]S(=O)(=O)C(F)(F)F)C(F)(F)F | 0.892 ± 0.072 mPa·s
